According to patent US10617667B2, “Method for treating brain tumors” (ONO PHARMACEUTICAL CO., LTD., priority 2017, dated 2020):

Columns and labels:
EP4 receptor [1] = biological target: T1, EP4 receptor (Homo sapiens, UniProt P35408); conditions: as taught by Patent Document 1 (WO2016/111347); cited from earlier work
EP4 receptor [2] = biological target: T1, EP4 receptor; conditions: as taught by Patent Document 1 (WO2016/111347); cited from earlier work; remark: listed apart in the source
[3] = test system: mouse glioma cell line GL261 orthotopic-graft; experiment: Survival in mouse glioma cell line GL261 orthotopic-graft model; format: in vivo, immunocompetent syngeneic C57BL/6 mice; conditions: Compound A 3 mg/kg oral twice a day
Experimental: Effects of Combination of Compound A and an Anti-Mouse PD-1 Antibody in Mouse Glioma Cell Line GL261 Orthotopic-Graft Models Using Immunocompetent Syngeneic C57BL/6 Mice
The effect of a combination of Compound A and an anti-mouse PD-1 antibody (4H2, see WO2006/121168) was evaluated in mouse glioma cell line GL261 orthotopic-graft models using immunocompetent syngeneic C57BL/6 mice. GL261 was cultured in a CO2 incubator using an RPMI medium (Mediatech, Inc.) containing 10 vol % of FBS, 100 units/mL of penicillin, and 100 μg/mL of streptomycin. On the day of transplant, GL261 was harvested after removing the culture supernatant, and washing the cells with PBS. The harvested GL261 cells were suspended in PBS to obtain transplant cells. The transplant cells (5×10^4) were then transplanted to the brain of female C57BL/6J mice (The Jackson Laboratory) under anesthesia.
After 5 days from transplant, the mice were divided into 4 groups: a vehicle group, a Compound A single group, an anti-mouse PD-1 antibody single group, and a combination group (Compound A and the anti-mouse PD-1 antibody). Each group included 10 mice. […] The general condition of the mice was observed once a day from the day following the day of transplant of GL261, and scored according to the following table. Thus, the survival rate of the mice was evaluated.

T1 sequence (P35408 whole entry): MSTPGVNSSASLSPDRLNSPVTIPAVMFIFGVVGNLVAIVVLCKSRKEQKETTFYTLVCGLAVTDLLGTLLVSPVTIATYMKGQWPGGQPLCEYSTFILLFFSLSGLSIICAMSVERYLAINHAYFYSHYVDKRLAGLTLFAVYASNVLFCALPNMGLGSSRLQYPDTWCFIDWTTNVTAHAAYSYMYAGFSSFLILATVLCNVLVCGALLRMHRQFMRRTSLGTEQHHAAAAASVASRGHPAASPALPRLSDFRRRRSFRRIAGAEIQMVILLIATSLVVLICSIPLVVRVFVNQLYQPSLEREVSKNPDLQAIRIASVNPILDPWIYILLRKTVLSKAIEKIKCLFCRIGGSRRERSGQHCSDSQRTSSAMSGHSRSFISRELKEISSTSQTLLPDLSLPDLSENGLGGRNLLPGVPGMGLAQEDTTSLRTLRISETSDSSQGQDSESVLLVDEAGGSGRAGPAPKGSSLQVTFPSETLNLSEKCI

In the case of CC(C)NC(=O)c1ccc2c(c1)[C@]1(CCO2)C[C@H]1C(=O)Nc1cc(C#N)ccc1CCCC(=O)O [Compound A, 4-[4-cyano-2-({[(2′R,4S)-6-(isopropylcarbamoyl)-2,3-dihydrospiro[chromene-4,1′-cyclopropan]-2′-yl]carbonyl}amino)phenyl]butanoic acid], the “binding to EP4 receptor” value (EP4 receptor [1]) is given as “strongly binds”, the “activity at EP4 receptor” value (EP4 receptor [2]) is given as “antagonistic activity” and the “survival time compared with vehicle administration group” value ([3]; GL261 orthotopic graft) is given as “longer than that of the vehicle administration group”. For the same compound, the “day after which all the mice had died” value ([3]; GL261 transplanted to brain of female C57BL/6J mice, days 5-70 from transplant, 10 mice per group) was 42 days.
